Source: BindingDB's records for doi:10.1016/j.bmcl.2009.10.011 (AMRI, 2009)

Molecular target: Cyclin-A1/Cyclin-A2/Cyclin-dependent kinase 2 (Homo sapiens, UniProt P24941)
Test: Inhibition of recombinant Cdk2/cyclinA

Structure (SMILES) | IC50 [nM]
CC(C)n1cnc2c(NCc3ccc(-c4cccs4)nc3)nc(N[C@H]3CC[C@H](N)CC3)nc21 | 0.9
Cc1csc(-c2ccc(CNc3nc(N[C@H]4CC[C@H](N)CC4)nc4c3ncn4C(C)C)s2)n1 | 0.1
